Source: PubChem BioAssay (NCI)
Where “and” joins values, the source holds several entries; their conditions need not be identical. Equal entries are not always repeated.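 Cultured in 96-well plates, cells were exposed to test compound for 48 hours across five concentrations. Here, GI50 denotes the concentration required for 50% inhibition of growth. TGI denotes the concentration required for complete inhibition of growth.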

What was measured:
Assay in all cases: NCI anticancer screen, dose series, 48 h
MOLT-4 leukemia = tested on: MOLT-4 leukemia
KM12 colon = tested on: KM12 colon
CAKI-1 renal = tested on: CAKI-1 renal
SK-MEL-2 melanoma = tested on: SK-MEL-2 melanoma
HCT-15 colon = tested on: HCT-15 colon
OVCAR-4 ovarian = tested on: OVCAR-4 ovarian
SK-MEL-5 melanoma = tested on: SK-MEL-5 melanoma
U251 CNS = tested on: U251 CNS

| Compound | GI50 (MOLT-4 leukemia) | TGI (MOLT-4 leukemia) [µM] | GI50 (KM12 colon) | TGI (KM12 colon) [µM] | GI50 (CAKI-1 renal) | TGI (CAKI-1 renal) [µM] | GI50 (SK-MEL-2 melanoma) | TGI (SK-MEL-2 melanoma) | GI50 (HCT-15 colon) | TGI (HCT-15 colon) [µM] | GI50 (OVCAR-4 ovarian) | TGI (OVCAR-4 ovarian) | GI50 (SK-MEL-5 melanoma) | TGI (SK-MEL-5 melanoma) | GI50 (U251 CNS) | TGI (U251 CNS) [µM] |
| --- | --- | --- | --- | --- | --- | --- | --- | --- | --- | --- | --- | --- | --- | --- | --- | --- |
| Cc1ccccc1NC(=O)N/C(N)=N/c1nc2ccccc2s1 | 0.0569 µM | > 100 | 0.0399 µM | > 100 | 0.0499 µM | > 100 | > 100 µM | > 100 µM | 0.0434 µM | > 100 | 0.667 µM | > 100 µM | 0.065 µM | 2.07 µM | 0.0547 µM | > 100 |
| CCNC(=O)Nc1ccc(-c2nc3c(c(N4CCOC[C@@H]4C)n2)CCN(C2COC2)C3)cc1 | 0.521 µM and 0.911 µM | > 100 | 0.507 µM and 0.403 µM | > 100 | 0.586 µM and 0.179 µM | > 31.5 | 0.295 µM and 0.392 µM | 3 µM and 3.43 µM | 0.638 µM and 0.45 µM | > 100 | 0.154 µM and 0.259 µM | 1.71 µM and > 7.24 µM | 0.317 µM and 0.331 µM | 8.52 µM and 2.56 µM | 0.357 µM and 0.413 µM | > 100 |
| C[CH2][Sn]1([CH2]C)[O]C2C(O)OC(CO)C(O)C2[O]1 (configuration not stated) | 12.8 µM | 40.5 | 90.4 µM | > 100 | 31.1 µM | > 100 | 35.5 µM | > 100 µM | 60.3 µM | > 100 | 14.8 µM | 36.9 µM | 34.1 µM | > 100 µM | 17.9 µM | 36.9 |
| COc1cc(C2=Nc3c/c(=C\c4c(O)[nH]c5ccc(Cl)cc45)ccc3=N2)cc(OC)c1OC | 2.43 µM | 12.9 | 3.09 µM | 12.2 | 5.5 µM | 27.8 | 9.01 µM | 30.2 µM | 3.27 µM | 11.6 | 2.18 µM | 7.9 µM | 1.58 µM | 3.55 µM | 1.79 µM | 3.91 |
| CN(C)c1cc2c(Nc3ccc4nc(Cc5ccccc5)[nH]c4c3)ncnc2cn1 | > 25 µM | > 25 | 13.8 µM | > 25 | 9.82 µM | > 25 | > 16.3 µM | > 25 µM | > 16.6 µM | > 25 | > 20.4 µM | > 25 µM | 8.99 µM | > 16 µM | > 17.5 µM | > 25 |
| CCCCCCCCCCCCCCCCCC(=O)[O][Sn]([CH2]CCC)([CH2]CCC)[CH2]CCC | 0.237 µM | – | 0.124 µM | 0.266 | 0.0524 µM | 0.214 | 0.171 µM | 0.369 µM | 0.146 µM | 0.38 | 0.108 µM | 0.245 µM | 0.141 µM | 0.272 µM | 0.153 µM | 0.319 |
| O=C1C(=O)c2ccccc2C=C1[N+](=O)[O-] | – | 65.4 | – | > 100 | – | > 100 | – | 99.5 µM | – | > 100 | – | > 100 µM | – | 46.4 µM | – | > 100 |
| COc1ccc(Nc2nc(NCc3ccccc3)c3ccccc3n2)cc1 | 2.12 µM | 5.28 | 3.81 µM | 13.8 | 3.69 µM | 14 | 8.72 µM | 21.7 µM | 3.69 µM | 19 | 3.11 µM | 14.8 µM | 1.68 µM | 3.14 µM | 2.17 µM | 3.97 |
| CCOc1ccc(/C=N/Nc2cc(C)nc3ccc(Cl)cc23)cc1 | 1.89 µM | 3.85 | 1.89 µM | 3.65 | 1.78 µM | 3.2 | 1.9 µM | 3.43 µM | 1.55 µM | 2.94 | 1.79 µM | 3.51 µM | 1.72 µM | 3.09 µM | 1.91 µM | 3.38 |
| N#CC(NC12CC3CC(CC(C3)C1)C2)c1ccccc1 (configuration not stated) | – | > 100 | – | > 100 | – | > 100 | – | > 100 µM | – | > 100 | – | > 100 µM | – | > 100 µM | – | > 100 |
| S=c1cn[nH]c2ccc(Br)cc12 | – | > 100 | – | > 100 | – | > 100 | – | 71.3 µM | – | > 100 | – | > 100 µM | – | > 100 µM | – | > 100 |
| O=C(/C=C/c1ccccc1Cl)c1ccc(O)cc1 | 5.64 µM | > 57.6 | 3.57 µM | 11.6 | 6.87 µM | 20.2 | 15 µM | 31.2 µM | 2.48 µM | 11.1 | 10.6 µM | 24.9 µM | 9.57 µM | 23.4 µM | 3.41 µM | 12.7 |
| CN(C)c1cc2c(cc1Sc1nc3c(N)nccc3n1CCNCC(C)(C)C)OCO2 | 0.287 µM | 3.54 | 0.305 µM | 2.79 | 0.591 µM | 39.7 | 1.05 µM | 16.9 µM | 0.394 µM | 14.5 | 6.17 µM | 46.2 µM | 0.713 µM | 13.2 µM | 0.726 µM | 14.8 |
| N#Cc1cc(-c2ccccc2)[nH]c1-c1nccc2ccccc12 | 7.15 µM | 52.2 | 20.7 µM | > 100 | 12.5 µM | > 100 | 11.9 µM | 81 µM | 20.6 µM | > 100 | 3.43 µM | > 100 µM | 3.58 µM | 15.2 µM | 25.1 µM | > 100 |
| O=C(O[C@H]1CN[C@H](C#Cc2cc3ncnc(Nc4ccc(Cc5ccccc5)cc4)c3s2)C1)N1CCOCC1 | 6.93 µM | > 25 | 4.28 µM | 8.72 | 2.08 µM | > 24.1 | 5.41 µM | 14.4 µM | 7.08 µM | > 25 | 6.22 µM | > 25 µM | 4.23 µM | 8.83 µM | 5.52 µM | 20.3 |
| O=C(c1ccc(F)c(F)c1Nc1ccc(I)cc1F)N1CC(O)([C@H]2CCCCN2)C1 | 8.46 µM | 23.3 | 1.12 µM | 14 | 6.28 µM | 20.3 | 0.135 µM | 0.702 µM | 4.81 µM | 19.3 | 3.81 µM | 17.7 µM | 0.668 µM | 6.06 µM | 3.5 µM | 18.9 |
| NC(=O)c1cccc(N)c1 | > 100 µM | > 100 | > 100 µM | > 100 | > 100 µM | > 100 | > 100 µM | > 100 µM | > 100 µM | > 100 | > 100 µM | > 100 µM | > 100 µM | > 100 µM | > 100 µM | > 100 |
